These results are taken from paper PMC6437697 (Journal of Medicinal Chemistry, 2019).

What all share (experiment): KINOMEscan
Common to all, as to format: binding
Common to all, as to conditions: read-out: % control activity remaining

The target in one experiment is T1, CAMKK1 (Homo sapiens, UniProt Q8N5S9).
T1 construct: purchased Eurofins DiscoverX KINOMEscan

A further experiment addresses T2, CLK4 (Homo sapiens, UniProt Q9HAZ1).
T2 construct: purchased Eurofins DiscoverX KINOMEscan

The target in the next experiment is T3, CTK (Homo sapiens, UniProt P42679).
T3 construct: purchased Eurofins DiscoverX KINOMEscan
T3 sequence (P42679 1-507): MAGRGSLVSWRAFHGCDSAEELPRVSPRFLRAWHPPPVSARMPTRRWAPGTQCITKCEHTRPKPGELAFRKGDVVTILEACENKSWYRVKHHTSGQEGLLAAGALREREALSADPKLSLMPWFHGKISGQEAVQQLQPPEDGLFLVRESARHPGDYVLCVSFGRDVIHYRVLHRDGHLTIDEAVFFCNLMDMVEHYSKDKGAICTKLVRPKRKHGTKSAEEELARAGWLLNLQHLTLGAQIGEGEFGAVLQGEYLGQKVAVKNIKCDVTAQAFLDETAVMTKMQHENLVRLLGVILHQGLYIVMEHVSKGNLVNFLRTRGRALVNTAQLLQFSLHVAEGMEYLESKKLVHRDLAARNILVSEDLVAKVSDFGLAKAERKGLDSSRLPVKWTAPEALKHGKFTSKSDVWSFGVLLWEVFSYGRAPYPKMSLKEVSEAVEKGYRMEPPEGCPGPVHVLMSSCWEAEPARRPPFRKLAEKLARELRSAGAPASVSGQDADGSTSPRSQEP

A further experiment has as its target T4, DYRK1B (Homo sapiens, UniProt Q9Y463).
T4 construct: purchased Eurofins DiscoverX KINOMEscan

For another experiment, the target named is T5, EGFR(E746-A750del) (Homo sapiens, UniProt P00533, DEL746-750).
T5 construct: purchased Eurofins DiscoverX KINOMEscan

For a further experiment, the target named is T6, FGFR3 (Homo sapiens, UniProt P22607).
T6 construct: purchased Eurofins DiscoverX KINOMEscan

Another experiment has as its target T7, HIPK1 (Homo sapiens, UniProt Q86Z02).
T7 construct: purchased Eurofins DiscoverX KINOMEscan

The next experiment has as its target T8, MST2 (Homo sapiens, UniProt Q13188).
T8 construct: purchased Eurofins DiscoverX KINOMEscan
T8 sequence (Q13188 1-491): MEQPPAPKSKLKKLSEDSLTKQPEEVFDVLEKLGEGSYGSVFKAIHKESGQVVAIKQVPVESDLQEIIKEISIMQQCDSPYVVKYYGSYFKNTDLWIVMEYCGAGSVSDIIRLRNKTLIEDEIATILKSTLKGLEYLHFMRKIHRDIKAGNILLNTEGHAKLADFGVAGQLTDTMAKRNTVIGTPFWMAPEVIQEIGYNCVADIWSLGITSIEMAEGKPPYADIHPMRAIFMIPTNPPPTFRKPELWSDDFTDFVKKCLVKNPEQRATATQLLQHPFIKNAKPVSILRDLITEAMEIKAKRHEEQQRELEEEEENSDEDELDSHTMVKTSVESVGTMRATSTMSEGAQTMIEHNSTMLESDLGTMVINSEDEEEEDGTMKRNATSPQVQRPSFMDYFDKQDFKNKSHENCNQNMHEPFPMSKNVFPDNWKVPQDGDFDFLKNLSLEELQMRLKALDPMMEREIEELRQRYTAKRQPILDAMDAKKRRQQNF

The next experiment concerns the target T9, PAK6 (Homo sapiens, UniProt Q9NQU5).
T9 construct: purchased Eurofins DiscoverX KINOMEscan

The target of the next experiment is T10, PRKD3 (Homo sapiens, UniProt O94806).
T10 construct: purchased Eurofins DiscoverX KINOMEscan
T10 sequence (O94806 1-890): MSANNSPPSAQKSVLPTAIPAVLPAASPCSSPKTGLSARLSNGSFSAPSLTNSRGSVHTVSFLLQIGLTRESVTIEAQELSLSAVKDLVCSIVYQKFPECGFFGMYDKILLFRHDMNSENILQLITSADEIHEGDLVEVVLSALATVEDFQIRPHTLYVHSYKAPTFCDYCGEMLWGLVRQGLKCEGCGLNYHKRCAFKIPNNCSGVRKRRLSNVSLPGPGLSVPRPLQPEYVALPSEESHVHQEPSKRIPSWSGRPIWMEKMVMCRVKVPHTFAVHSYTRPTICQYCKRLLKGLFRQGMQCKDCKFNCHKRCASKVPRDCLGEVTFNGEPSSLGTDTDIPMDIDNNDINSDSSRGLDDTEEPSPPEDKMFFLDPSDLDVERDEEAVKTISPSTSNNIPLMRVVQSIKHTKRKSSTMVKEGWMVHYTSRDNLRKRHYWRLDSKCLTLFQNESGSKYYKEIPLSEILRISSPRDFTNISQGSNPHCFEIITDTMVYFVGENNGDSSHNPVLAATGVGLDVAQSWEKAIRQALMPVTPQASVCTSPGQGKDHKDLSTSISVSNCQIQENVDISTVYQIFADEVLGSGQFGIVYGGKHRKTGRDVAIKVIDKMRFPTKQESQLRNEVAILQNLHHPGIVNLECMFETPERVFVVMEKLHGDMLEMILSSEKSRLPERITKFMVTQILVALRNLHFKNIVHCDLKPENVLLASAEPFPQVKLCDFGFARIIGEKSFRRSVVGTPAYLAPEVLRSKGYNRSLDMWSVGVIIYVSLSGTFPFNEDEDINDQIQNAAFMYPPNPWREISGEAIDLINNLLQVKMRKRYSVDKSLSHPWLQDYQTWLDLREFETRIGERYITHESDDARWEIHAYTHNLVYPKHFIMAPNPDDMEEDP

Another experiment addresses T11, SLK (Homo sapiens, UniProt Q9H2G2).
T11 construct: purchased Eurofins DiscoverX KINOMEscan

Another experiment has as its target T12, SRPK1 (Homo sapiens, UniProt Q96SB4).
T12 construct: purchased Eurofins DiscoverX KINOMEscan

The target in another experiment is T13, WNK3 (Homo sapiens, UniProt Q9BYP7).
T13 construct: purchased Eurofins DiscoverX KINOMEscan
T13 sequence (Q9BYP7 whole entry): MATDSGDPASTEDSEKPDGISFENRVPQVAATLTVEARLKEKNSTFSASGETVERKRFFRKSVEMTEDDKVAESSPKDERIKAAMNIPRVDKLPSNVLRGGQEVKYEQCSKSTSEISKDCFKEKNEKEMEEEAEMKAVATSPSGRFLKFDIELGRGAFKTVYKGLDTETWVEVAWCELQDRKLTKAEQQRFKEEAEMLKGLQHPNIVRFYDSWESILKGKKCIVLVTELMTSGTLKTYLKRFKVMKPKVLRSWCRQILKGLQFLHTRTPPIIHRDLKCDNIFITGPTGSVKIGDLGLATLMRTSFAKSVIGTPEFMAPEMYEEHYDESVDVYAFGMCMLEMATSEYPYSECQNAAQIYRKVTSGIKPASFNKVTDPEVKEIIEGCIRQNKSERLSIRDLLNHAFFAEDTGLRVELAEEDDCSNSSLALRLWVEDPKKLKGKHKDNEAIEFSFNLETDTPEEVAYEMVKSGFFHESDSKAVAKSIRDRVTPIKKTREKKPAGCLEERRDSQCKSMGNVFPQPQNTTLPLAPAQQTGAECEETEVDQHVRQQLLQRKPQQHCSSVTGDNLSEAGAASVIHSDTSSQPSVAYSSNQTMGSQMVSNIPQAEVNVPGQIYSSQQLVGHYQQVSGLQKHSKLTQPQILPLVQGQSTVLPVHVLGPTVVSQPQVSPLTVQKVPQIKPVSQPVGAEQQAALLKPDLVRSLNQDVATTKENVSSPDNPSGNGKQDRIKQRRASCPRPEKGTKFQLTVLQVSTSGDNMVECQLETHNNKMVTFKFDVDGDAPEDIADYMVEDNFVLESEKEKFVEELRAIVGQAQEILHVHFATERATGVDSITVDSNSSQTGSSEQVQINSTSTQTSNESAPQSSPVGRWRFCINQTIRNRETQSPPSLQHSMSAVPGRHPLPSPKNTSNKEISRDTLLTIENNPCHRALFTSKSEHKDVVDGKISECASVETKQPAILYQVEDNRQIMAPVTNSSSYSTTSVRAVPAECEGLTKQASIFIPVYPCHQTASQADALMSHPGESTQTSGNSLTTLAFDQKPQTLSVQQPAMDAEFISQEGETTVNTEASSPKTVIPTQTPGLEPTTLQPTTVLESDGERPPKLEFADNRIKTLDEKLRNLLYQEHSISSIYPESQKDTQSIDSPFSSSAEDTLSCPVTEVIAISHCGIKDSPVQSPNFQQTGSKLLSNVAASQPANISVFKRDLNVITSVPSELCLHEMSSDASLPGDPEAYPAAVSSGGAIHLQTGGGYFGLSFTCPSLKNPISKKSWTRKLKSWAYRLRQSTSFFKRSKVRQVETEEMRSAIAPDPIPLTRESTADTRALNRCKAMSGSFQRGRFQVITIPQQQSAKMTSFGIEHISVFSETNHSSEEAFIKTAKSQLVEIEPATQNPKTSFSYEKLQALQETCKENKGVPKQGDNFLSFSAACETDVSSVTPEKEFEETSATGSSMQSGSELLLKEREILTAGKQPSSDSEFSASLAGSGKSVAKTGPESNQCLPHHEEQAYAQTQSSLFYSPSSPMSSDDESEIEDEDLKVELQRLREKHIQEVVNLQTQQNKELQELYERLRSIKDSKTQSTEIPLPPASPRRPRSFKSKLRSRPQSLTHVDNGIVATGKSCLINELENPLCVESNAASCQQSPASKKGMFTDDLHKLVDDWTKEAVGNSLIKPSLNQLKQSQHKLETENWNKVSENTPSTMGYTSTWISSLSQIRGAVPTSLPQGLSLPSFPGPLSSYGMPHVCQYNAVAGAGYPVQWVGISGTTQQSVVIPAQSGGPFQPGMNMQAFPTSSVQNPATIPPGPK

T4 sequence (Q9Y463 whole entry): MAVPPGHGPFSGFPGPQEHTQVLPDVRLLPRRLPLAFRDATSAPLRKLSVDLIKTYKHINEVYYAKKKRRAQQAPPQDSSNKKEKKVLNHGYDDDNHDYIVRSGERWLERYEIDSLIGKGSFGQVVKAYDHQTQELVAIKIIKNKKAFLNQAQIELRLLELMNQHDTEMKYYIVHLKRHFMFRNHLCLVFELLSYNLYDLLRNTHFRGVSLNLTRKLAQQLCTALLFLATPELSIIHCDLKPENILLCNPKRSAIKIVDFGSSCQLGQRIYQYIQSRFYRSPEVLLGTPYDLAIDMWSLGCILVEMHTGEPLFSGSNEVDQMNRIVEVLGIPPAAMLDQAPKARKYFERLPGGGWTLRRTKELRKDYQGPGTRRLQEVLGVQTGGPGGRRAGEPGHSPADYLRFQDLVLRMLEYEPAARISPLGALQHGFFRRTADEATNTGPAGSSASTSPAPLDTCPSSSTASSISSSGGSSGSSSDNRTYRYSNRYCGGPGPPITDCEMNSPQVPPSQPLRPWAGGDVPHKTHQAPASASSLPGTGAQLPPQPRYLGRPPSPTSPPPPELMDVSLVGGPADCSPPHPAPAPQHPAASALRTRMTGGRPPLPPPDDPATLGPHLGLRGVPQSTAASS
T1 sequence (Q8N5S9 whole entry): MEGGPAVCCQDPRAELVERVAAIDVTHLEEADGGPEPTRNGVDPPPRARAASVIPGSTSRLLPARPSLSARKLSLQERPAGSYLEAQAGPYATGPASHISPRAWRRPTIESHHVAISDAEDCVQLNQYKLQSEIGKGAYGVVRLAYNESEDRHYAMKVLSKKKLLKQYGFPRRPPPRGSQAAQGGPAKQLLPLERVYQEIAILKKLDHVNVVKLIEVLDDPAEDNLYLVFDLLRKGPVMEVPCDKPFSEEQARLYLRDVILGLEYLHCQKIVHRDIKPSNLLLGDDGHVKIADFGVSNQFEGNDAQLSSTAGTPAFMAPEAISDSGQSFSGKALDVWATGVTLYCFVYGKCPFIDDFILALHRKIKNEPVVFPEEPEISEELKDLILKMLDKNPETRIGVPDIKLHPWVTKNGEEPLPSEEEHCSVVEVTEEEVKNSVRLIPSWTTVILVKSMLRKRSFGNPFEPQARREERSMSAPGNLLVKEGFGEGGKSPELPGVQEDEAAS
T12 sequence (Q96SB4 whole entry): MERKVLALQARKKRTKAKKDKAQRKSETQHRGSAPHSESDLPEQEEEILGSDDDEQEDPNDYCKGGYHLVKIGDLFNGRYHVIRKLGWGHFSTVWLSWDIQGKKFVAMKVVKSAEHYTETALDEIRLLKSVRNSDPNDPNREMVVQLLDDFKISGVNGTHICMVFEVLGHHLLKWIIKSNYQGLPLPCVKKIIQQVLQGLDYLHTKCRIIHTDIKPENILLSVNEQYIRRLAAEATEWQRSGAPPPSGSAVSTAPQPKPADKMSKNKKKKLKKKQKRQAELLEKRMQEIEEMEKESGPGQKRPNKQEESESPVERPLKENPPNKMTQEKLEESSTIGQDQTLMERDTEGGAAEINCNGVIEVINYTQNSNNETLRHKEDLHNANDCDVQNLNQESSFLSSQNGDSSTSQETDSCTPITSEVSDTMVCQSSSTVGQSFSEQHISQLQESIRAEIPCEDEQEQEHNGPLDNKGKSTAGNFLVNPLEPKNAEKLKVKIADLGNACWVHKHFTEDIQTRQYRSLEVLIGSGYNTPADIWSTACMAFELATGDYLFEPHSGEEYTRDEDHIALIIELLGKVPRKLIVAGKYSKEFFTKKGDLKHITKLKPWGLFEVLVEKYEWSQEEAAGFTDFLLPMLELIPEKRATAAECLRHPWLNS
T2 sequence (Q9HAZ1 whole entry): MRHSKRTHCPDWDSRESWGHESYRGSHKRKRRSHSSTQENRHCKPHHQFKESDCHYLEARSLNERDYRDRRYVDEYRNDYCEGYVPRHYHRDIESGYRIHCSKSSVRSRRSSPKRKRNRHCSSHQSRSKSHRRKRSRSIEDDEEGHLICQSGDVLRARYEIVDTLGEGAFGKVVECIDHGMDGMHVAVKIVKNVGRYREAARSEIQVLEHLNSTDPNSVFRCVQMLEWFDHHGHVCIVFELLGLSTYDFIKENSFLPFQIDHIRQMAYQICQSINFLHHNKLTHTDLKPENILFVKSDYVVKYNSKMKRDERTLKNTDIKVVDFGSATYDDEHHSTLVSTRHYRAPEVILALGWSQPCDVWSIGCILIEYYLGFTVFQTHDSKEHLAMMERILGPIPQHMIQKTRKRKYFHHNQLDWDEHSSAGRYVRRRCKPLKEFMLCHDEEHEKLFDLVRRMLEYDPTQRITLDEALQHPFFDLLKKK
T9 sequence (Q9NQU5 whole entry): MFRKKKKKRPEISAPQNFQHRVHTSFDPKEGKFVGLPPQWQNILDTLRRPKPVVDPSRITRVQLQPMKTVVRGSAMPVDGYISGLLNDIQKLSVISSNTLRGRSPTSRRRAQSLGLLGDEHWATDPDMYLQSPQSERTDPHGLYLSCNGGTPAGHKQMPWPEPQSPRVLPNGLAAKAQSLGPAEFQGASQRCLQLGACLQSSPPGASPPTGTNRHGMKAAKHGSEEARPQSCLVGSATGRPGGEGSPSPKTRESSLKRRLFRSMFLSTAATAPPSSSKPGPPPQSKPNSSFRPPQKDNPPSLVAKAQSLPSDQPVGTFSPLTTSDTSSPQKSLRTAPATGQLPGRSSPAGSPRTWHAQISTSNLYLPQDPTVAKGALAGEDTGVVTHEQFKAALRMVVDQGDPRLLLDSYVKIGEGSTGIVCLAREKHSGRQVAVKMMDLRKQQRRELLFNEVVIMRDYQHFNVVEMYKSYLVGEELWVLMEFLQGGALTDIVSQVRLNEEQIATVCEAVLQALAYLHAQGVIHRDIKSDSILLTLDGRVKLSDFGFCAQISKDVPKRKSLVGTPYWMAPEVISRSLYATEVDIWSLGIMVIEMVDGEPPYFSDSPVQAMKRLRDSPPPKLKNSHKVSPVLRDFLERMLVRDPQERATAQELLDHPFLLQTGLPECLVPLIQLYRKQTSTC

`Clc1cc(NCC2CC2)c2ncc(-c3ccc4[nH]ncc4c3)n2n1` [compound 2, 6-Chloro-N-(cyclopropylmethyl)-3-(1H-indazol-5-yl)imidazo[1,2-b]pyridazin-8-amine]: the remaining binding at 1 µM was 94% at CAMKK1; 1.5% at CLK4; 91% on CTK; 1% at DYRK1B; 84% on EGFR(E746-A750del); 90% at FGFR3. In addition, the remaining binding at 1 µM amounted to 42% at HIPK1; 85% at MST2; 100% at PAK6; 98% on PRKD3; 100% at SLK; 100% on SRPK1. For the same molecule, the remaining binding at 1 µM at WNK3 is 96%.

On to `O=C(CN1CCOCC1)N[C@H]1CC[C@H](Nc2cc(Cl)nn3c(-c4ccc5[nH]ncc5c4)cnc23)CC1` [compound 26], for which the remaining binding at 1 µM is 52% at CAMKK1; 2.1% on CLK4; 95% on CTK; 0.85% at DYRK1B; 91% at EGFR(E746-A750del); 94% on FGFR3. The remaining binding at 1 µM on HIPK1 turned out to be 0.45%; on MST2, 92%; at PAK6, 98%; on PRKD3, 94%; at SLK it was 98%; on SRPK1, 79%. The remaining binding at 1 µM on WNK3 came out at 100%.

With `CN1CCC(CNc2cc(Cl)nn3c(-c4cc5nc(Nc6ccccc6)[nH]c5cc4F)cnc23)CC1` [compound 31, 6-Chloro-3-(6-fluoro-2-(phenylamino)-1H-benzo[d]imidazol-5-yl)-N-((1-methylpiperidin-4-yl)methyl)imidazo[1,2-b]pyridazin-8-amine], the remaining binding at 1 µM at CAMKK1 was determined as 98%; at CLK4, 20%; at CTK, 69%; at DYRK1B, 63%; at EGFR(E746-A750del), 100%; at FGFR3, 91%. The remaining binding at 1 µM on HIPK1 was 74%; at MST2, 100%; on PAK6, 97%; on PRKD3, 100%; at SLK, 80%; at SRPK1, 84%. Moreover, the remaining binding at 1 µM on WNK3 came out at 82%.
